Source: patent US20250214942A1, “INHIBITORS OF RECEPTOR INTERACTING PROTEIN KINASE I FOR THE TREATMENT OF DISEASE” (Board of Regents, The University of Texas System, priority 2019, published 2025)
Read-outs that look alike come from different tables or passages of the source.

Legend:
RIPK1 = RIPK1 (Homo sapiens (Human), UniProt Q13546); assay: ADP-Glo kinase assay (RIPK1 activity, conversion of ATP to ADP); format: biochemical; settings: 5 nM RIPK1, 50 μM ATP, 6 h reaction; read-out: RIPK1 Enzyme Avg IC50
Sequence of RIPK1 (Q13546 1-327): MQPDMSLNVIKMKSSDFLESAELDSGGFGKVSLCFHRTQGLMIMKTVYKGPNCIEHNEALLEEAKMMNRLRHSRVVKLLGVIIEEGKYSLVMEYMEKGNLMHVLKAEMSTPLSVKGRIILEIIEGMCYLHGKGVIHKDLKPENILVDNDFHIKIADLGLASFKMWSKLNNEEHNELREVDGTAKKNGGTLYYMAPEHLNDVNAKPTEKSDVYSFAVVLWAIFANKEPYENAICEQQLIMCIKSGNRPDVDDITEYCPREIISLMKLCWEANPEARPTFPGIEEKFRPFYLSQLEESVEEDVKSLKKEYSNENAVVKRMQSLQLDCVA
Summary of the method: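 RIPK1 (5 nM final) was preincubated 10 min at rt with 1:3-diluted compounds in HEPES pH 7.5/MgCl2/DTT/BSA/CHAPS buffer. ATP (50 μM final) was then added for 6 h, and ADP formed was read by ADP-Glo luminescence. IC50 values came from four-parameter logistic fitting.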

[1] = test system: human monocytic cell line U937; assay: Human U937 cellular necroptosis assay (TNFalpha + z-VAD-FMK, Cell Titer-Glo viability); format: cell-based; settings: U937 cells, 25 ng/mL human TNFalpha + 25 μM z-VAD-FMK, read-out: hU937 Avg IC50
Summary of the method: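 Readout is CellTiter-Glo 2.0 luminescence after 22 h at 37° C with compound, in cells triggered by human TNFalpha (25 ng/mL) and z-VAD-FMK (25 μM) in phenol red-free RPMI/10% FBS. Values are run-averaged IC50s from a four-parameter logistic curve.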

| Compound | IC50 (RIPK1) [nM] | IC50 ([1]; 22 h) [nM] | IC50 ([1]; Homo sapiens, U-937, 22 h) [nM] |
| --- | --- | --- | --- |
| 1-((3-(5-(3,5-difluorophenyl)-4,5-dihydro-1H-pyrazole-1-carbonyl)bicyclo[1.1.1]-pentan-1-yl)methyl)-1H-benzo[d]imidazole-6-carbonitrile and 1-((3-(5-(3,5-difluorophenyl)-4,5-dihydro-1H-pyrazole-1-carbonyl)bicyclo[1.1.1]-pentan-1-yl)methyl)-1H-benzo[d]imidazole-5-carbonitrile [Example 186] | 113 | 682 |  |
| Cn1cc(-c2cc(OCC34CC(C(=O)N5CC(F)CC5c5cccc(F)c5)(C3)C4)ncn2)cn1 (single isomer, unassigned) [Example 29, (4-Fluoro-2-(3-fluorophenyl)pyrrolidin-1-yl)(3-(((6-(1-methyl-1H-pyrazol-4-yl)pyrimidin-4-yl)oxy)methyl)bicyclo[1.1.1]pentan-1-yl)methanone] | 213 |  | 647 |
| Cn1cc(-c2cc(OCC34CC(C(=O)N5CC(F)CC5c5cccc(F)c5)(C3)C4)ncn2)cn1 (single isomer, unassigned) [Example 30, (4-Fluoro-2-(3-fluorophenyl)pyrrolidin-1-yl)(3-(((6-(1-methyl-1H-pyrazol-4-yl)pyrimidin-4-yl)oxy)methyl)bicyclo[1.1.1]pentan-1-yl)methanone] | 124 | 708 |  |
| O=C(N1N=CCC1c1cc(F)cc(F)c1)C12CC(Cn3cc4cc(F)ccc4n3)(C1)C2 (stereo not drawn) [Example 3, (5-(3,5-Difluorophenyl)-4,5-dihydro-1H-pyrazol-1-yl)(3-((5-fluoro-2H-indazol-2-yl)methyl)bicyclo[1.1.1]pentan-1-yl)methanone] | 51 |  | 112 |
| O=C(N1N=CCC1c1cc(F)cc(F)c1)C12CC(Cn3ncc4cc(F)ccc43)(C1)C2 (stereo not drawn) [Example 4, (5-(3,5-Difluorophenyl)-4,5-dihydro-1H-pyrazol-1-yl)(3-((5-fluoro-1H-indazol-1-yl)methyl)bicyclo[1.1.1]pentan-1-yl)methanone] | 19 |  | 9 |
| O=C(N1N=CCC1c1cc(F)cc(F)c1)C12CC(CF)(C1)C2 (stereo not drawn) [Example 5, (5-(3,5-Difluorophenyl)-4,5-dihydro-1H-pyrazol-1-yl)(3-(fluoromethyl)-bicyclo[1.1.1]pentan-1-yl)methanone] | 17 |  | 20 |
| O=C(N1N=CCC1c1cc(F)cc(F)c1)C12CC(COc3cc(Br)ncn3)(C1)C2 (stereo not drawn) [Example 6, (3-(((6-Bromopyrimidin-4-yl)oxy)methyl)bicyclo[1.1.1]pentan-1-yl)(5-(3,5-difluorophenyl)-4,5-dihydro-1H-pyrazol-1-yl)methanone] | 23 |  | 20 |
| O=C(N1N=CCC1c1cc(F)cc(F)c1)C12CC(COc3cc(Cl)ncn3)(C1)C2 (stereo not drawn) [Example 7, (3-(((6-Chloropyrimidin-4-yl)oxy)methyl)bicyclo[1.1.1]pentan-1-yl)(5-(3,5-difluorophenyl)-4,5-dihydro-1H-pyrazol-1-yl)methanone] | 21 |  | 18 |
| NC(=O)c1cc(OCC23CC(C(=O)N4N=CCC4c4cc(F)cc(F)c4)(C2)C3)ncn1 (stereo not drawn) [Example 8, 6-((3-(5-(3,5-Difluorophenyl)-4,5-dihydro-1H-pyrazole-1-carbonyl)bicyclo[1.1.1]pentan-1-yl)methoxy)pyrimidine-4-carboxamide] | 28 |  | 51 |
| N#Cc1cc(OCC23CC(C(=O)N4N=CCC4c4cc(F)cc(F)c4)(C2)C3)ncn1 (stereo not drawn) [Example 9, 6-((3-(5-(3,5-Difluorophenyl)-4,5-dihydro-1H-pyrazole-1-carbonyl)bicyclo[1.1.1]pentan-1-yl)methoxy)pyrimidine-4-carbonitrile] | 16 |  | 62 |
| O=C(N1N=CCC1c1cc(F)cc(F)c1)C12CC(CCl)(C1)C2 (stereo not drawn) [Example 11, (3-(Chloromethyl)bicyclo[1.1.1]pentan-1-yl)(5-(3,5-difluorophenyl)-4,5-dihydro-1H-pyrazol-1-yl)methanone] | 20 |  | 18 |
| N#Cc1cc(NCC23CC(C(=O)N4N=CCC4c4cc(F)cc(F)c4)(C2)C3)ncn1 (stereo not drawn) [Example 12, 6-(((3-(5-(3,5-Difluorophenyl)-4,5-dihydro-1H-pyrazole-1-carbonyl)bicyclo[1.1.1]pentan-1-yl)methyl)amino)pyrimidine-4-carbonitrile] | 243 |  | 887 |
| O=C(N1N=CCC1c1cncc(F)c1)C12CC(Cn3ncc4c(F)cccc43)(C1)C2 (stereo not drawn) [Example 14, (3-((4-Fluoro-1H-indazol-1-yl)methyl)bicyclo[1.1.1]pentan-1-yl)(5-(5-fluoropyridin-3-yl)-4,5-dihydro-1H-pyrazol-1-yl)methanone] | 12 |  | 24 |
| N#CCC12CC(C(=O)N3N=CCC3c3cc(F)cc(F)c3)(C1)C2 (stereo not drawn) [Example 18, 2-(3-(5-(3,5-Difluorophenyl)-4,5-dihydro-1H-pyrazole-1-carbonyl)-bicyclo[1.1.1]pentan-1-yl)acetonitrile] | 70 |  | 284 |
| O=C(N1N=CCC1c1cc(F)cc(F)c1)C12CC(Cn3cc4c(F)cccc4n3)(C1)C2 (stereo not drawn) [Example 21, (5-(3,5-Difluorophenyl)-4,5-dihydro-1H-pyrazol-1-yl)(3-((4-fluoro-2H-indazol-2-yl)methyl)bicyclo[1.1.1]pentan-1-yl)methanone] | 70 |  | 114 |
| O=C(N1N=CCC1c1cc(F)cc(F)c1)C12CC(Cn3ncc4c(F)cccc43)(C1)C2 (stereo not drawn) [Example 22, (5-(3,5-Difluorophenyl)-4,5-dihydro-1H-pyrazol-1-yl)(3-((4-fluoro-1H-indazol-1-yl)methyl)bicyclo[1.1.1]pentan-1-yl)methanone] | 11 |  | 5 |
| O=C(N1N=CCC1c1cc(F)cc(F)c1)C12CC(Cn3cnc4ccccc43)(C1)C2 (stereo not drawn) [Example 23, (3-((1H-Benzo[d]imidazol-1-yl)methyl)bicyclo[1.1.1]pentan-1-yl)(5-(3,5-difluorophenyl)-4,5-dihydro-1H-pyrazol-1-yl)methanone] | 30 |  | 158 |
| N#Cc1ccnc(OCC23CC(C(=O)N4CC(F)CC4c4cccc(F)c4)(C2)C3)c1 (stereo not drawn) [Example 26, 2-((3-(4-Fluoro-2-(3-fluorophenyl)pyrrolidine-1-carbonyl)-bicyclo[1.1.1]pentan-1-yl)methoxy)isonicotinonitrile] | 59 |  | 472 |
| O=C(N1CC(F)CC1c1cccc(F)c1)C12CC(Cn3ncc4cc(F)ccc43)(C1)C2 (stereo not drawn) [Example 27, (3-((5-Fluoro-1H-indazol-1-yl)methyl)bicyclo[1.1.1]pentan-1-yl)(4-fluoro-2-(3-fluorophenyl)pyrrolidin-1-yl)methanone] | 14 |  | 167 |
| O=C(N1CC(F)CC1c1cccc(F)c1)C12CC(COc3cc(Br)ncn3)(C1)C2 (stereo not drawn) [Example 28, (3-(((6-Bromopyrimidin-4-yl)oxy)methyl)bicyclo[1.1.1]pentan-1-yl)(4-fluoro-2-(3-fluorophenyl)pyrrolidin-1-yl)methanone] | 32 |  | 193 |
| O=C(N1CC(F)CC1c1cccc(F)c1)C12CC(COc3ccccc3)(C1)C2 (stereo not drawn) [Example 31, (4-Fluoro-2-(3-fluorophenyl)pyrrolidin-1-yl)(3-(phenoxymethyl)-bicyclo[1.1.1]pentan-1-yl)methanone] | 55 |  | 462 |
| O=C(N1CC(F)CC1c1cccc(F)c1)C12CC(C(F)c3ccccc3)(C1)C2 (stereo not drawn) [Example 41, (3-(Fluoro(phenyl)methyl)bicyclo[1.1.1]pentan-1-yl)-(4-fluoro-2-(3-fluorophenyl)pyrrolidin-1-yl)methanone] | 31 |  | 272 |
| (3-((3-cyclopropyl-1H-pyrazol-1-yl)methyl)-bicyclo[1.1.1]pentan-1-yl)(5-(3,5-difluorophenyl)-4,5-dihydro-1H-pyrazol-1-yl)methanone and (3-((5-cyclopropyl-1H-pyrazol-1-yl)methyl)-bicyclo[1.1.1]pentan-1-yl)(5-(3,5-difluorophenyl)-4,5-dihydro-1H-pyrazol-1-yl)methanone [Example 191] | 74 |  |  |
| (5-(3,5-difluorophenyl)-4,5-dihydro-1H-pyrazol-1-yl)(3-((3-methyl-1H-pyrazol-1-yl)methyl)bicyclo[1.1.1]-pentan-1-yl)methanone and (5-(3,5-difluorophenyl)-4,5-dihydro-1H-pyrazol-1-yl)(3-((5-methyl-1H-pyrazol-1-yl)methyl)bicyclo[1.1.1]-pentan-1-yl)methanone [Example 190] | 30 |  |  |
| (5-(3,5-difluorophenyl)-4,5-dihydro-1H-pyrazol-1-yl)(3-((6-fluoro-2-methyl-1H-benzo[d]imidazol-1-yl)-methyl)bicyclo[1.1.1]pentan-1-yl)methanone and (5-(3,5-difluorophenyl)-4,5-dihydro-1H-pyrazol-1-yl)(3-((5-fluoro-2-methyl-1H-benzo[d]imidazol-1-yl)-methyl)bicyclo[1.1.1]pentan-1-yl)methanone [Example 188] | 454 |  |  |
| (5-(3,5-difluorophenyl)-4,5-dihydro-1H-pyrazol-1-yl)(3-((6-methoxy-1H-benzo[d]-imidazol-1-yl)methyl)-bicyclo[1.1.1]pentan-1-yl)-methanone and (5-(3,5-difluorophenyl)-4,5-dihydro-1H-pyrazol-1-yl)(3-((5-methoxy-1H-benzo[d]-imidazol-1-yl)methyl)-bicyclo[1.1.1]pentan-1-yl)-methanone [Example 187] | 447 |  |  |
